“And” between values parts separate entries of the source, which are not always exact repeats. Equal values may be shown once. “Also recorded” adds a separate entry of the source. Read-outs that look alike come from different tables or passages of the source.
Tests used:
[1] = target: T1, recombinant α-synuclein fibrils (Homo sapiens, UniProt P37840); assay: photo-crosslinking of α-synuclein fibrils, digestion and LC-MS/MS; settings: UV irradiation, GluC or trypsin digest
Text: To gain additional insight into the binding site of these molecules, a photoaffinity variant (TZ-CLX) was synthesized containing a diazirine as a photo-crosslinking motif. Closely resembling the 6-substituted lead compounds 7j and 8i, this compound covalently inserts into C-H bonds on nearby residues in the α-synuclein fibril binding site upon irradiation with ultraviolet (UV) light. Using established procedures, the crosslinked fibrils can then be disaggregated, digested using either GluC or trypsin, and analyzed via LC-MS/MS to ascertain residue-level binding information. […] Minor crosslinks were also identified in the N-terminal binding site, primarily via trypsin digestion and corresponding to the peptide EGVVAAAEK (residues 13–21, proximal to site 2, Figure 3). […]
Bottom-up LC-MS/MS Analysis. Peptide mixtures resulting from labeling and digestion were resolubilized in 25 µl of water with 0.1%TFA and analyzed by a Q-Exactive HF mass spectromet er (Thermo Fisher Scientific; Waltham, MA) coupled to a Dionex Ultimate 3000 UHPLC system (Thermo Fisher Scientific; Waltham, MA) equipped with an in- house made 15 ௗcm long fused silica capillary column (75 μm ID), packed with reversed phase Repro-Sil Pure C18-AQ 2.4 μm resin (Dr. Maisch GmbH, Ammerbuch, Germany). […]

[2] = PET brain imaging studies in non-human primates; format: in vivo, cynomolgus macaques; settings: for blood–brain barrier penetration / brain washout kinetics: in words
Description: All animal experiments were conducted under a research protocol approved by the Washington University Institutional Animal Care and Use Committee (IACUC). The NHP study was conducted in the NHP microPET facility at the Washington University School of Medicine in St. Louis. Three adults male cynomolgus macaques (9.73 ± 0.71 kg) were used in this study. Each animal was fasted for 12 h prior to the PET scans. Anesthesia was induced with an intramuscular injection of ketamine (10–20 mg kg^−1) and glycopyrrolate (0.013–0.017 mg kg^−1) to reduce salivary gland and respiration secretions. The animal was intubated, and anesthesia was maintained at 40–50% N2O and 1.4–2.0% isoflurane/oxygen throughout the procedure. A percutaneous venous catheter was used for the radiotracer injection. During the PET scanning session, the head was positioned supine with the brain in the center of the field of view. The PET scans were performed with a microPET Focus 220 scanner (Concorde/CTI/Siemens Microsystems, Knoxville, TN, USA). A 10 min transmission scan was performed to check the positioning; once confirmed, a 45 min transmission scan was obtained for attenuation correction. Subsequently, a 2 h dynamic emission scan was acquired after the administration of 365.44 ± 26.69 MBq of [^11C]7f, [^11C]8i, or [^18F]7j via the venous catheter. The PET data were collected from 0 to 120 min with the following timeframes: 3 × 1 min, 4 × 2 min, 3 × 3 min, and […]. The PET images were reconstructed using a filtered back projection method into a volume size of 128 × 128 × 95 and a voxel size of 1.85 × 1.85 × 0.796 mm^3, with all corrections (scatter, decay, random, normalization, etc.) applied. The dynamic PET images were motion-corrected and then co-registered to previous acquired structural MPRAGE MR images. The INIA19 primate brain and atlas (https://www.nitrc.org/projects/inia19/, accessed on 2 August 2023) were then co-registered to the MR images, so as to obtain the regional time−activity curves (TACs) in the regions of interests (ROIs). The radioactivity uptake was normalized using the body weight and the injected dose to obtain the standardized uptake values (SUVs). A voxel-wise reference Logan plot was performed using the cerebellum as the reference region to obtain the distribution volume ratio (DVR), with a linear time range of 30 min to 120 min:(1) ∫0t Ctτdτ/Ctt=DVR∫0t Crτdτ/Ctt+β
Here, Cr(t) is the regional time activity curve (TAC) of the reference tissue, Ct(t) is the pixelwise time activity curves of the target tissue tracer concentration measured via PET, and DVR is the distribution volume ratio of the target to the reference tissue.
The image processing was performed using MIAKAT in MATLAB (R2023a, The MathWorks, Inc., Natick, MA, USA).

[3] = target: T2, LBD-amplified fibrils (α-synuclein) (Homo sapiens, UniProt P37840); assay: homologous competitive binding assay of radiotracers, LBD-amplified fibrils
T2 construct: made in house
Description: (§1) The binding affinity determination (Kd) was performed using homologous competitive binding assays of radiotracers with recombinant α-synuclein fibrils, LBD-amplified fibrils, PD tissues, and AD brain tissue homogenates. The brain tissue from PD and AD cases was obtained from the Banner Sun Health Research Institute Brain and Body Donation Program of Sun City, Arizona.
(§2) These direct binding assays used a fixed concentration of either recombinant α-synuclein fibrils, LBD-amplified fibrils, PD, AD tissue, or a radioligand ([^11C]7f, [^18F]7j, [^11C]8i and [^125I]8i, [^3H]8i) and varying concentration ranges of the corresponding homologous non-radiolabeled standard reference compound. In brief, various concentrations of corresponding cold compounds were diluted in 30 mM of Tris-HCl at pH 7.4, with 0.1% BSA. The direct binding assay was carried out by mixing (1) recombinant α-synuclein fibrils, LBD-amplified fibrils, PD, or AD tissue; (2) a radioligand ([^11C]7f or [^18F]7j); and (3) various concentrations of corresponding cold compounds, with incubation at 37 °C for 1 h for [^18F]7j and 30 min for [^11C]7f. After incubation, the bound and free radioligands were separated via vacuum filtration through 1.0 µm glass fiber filters in 96-well filter plates (MilliporeSigma, Burlington, MA, USA), followed by three 200 µL washes with ice-cold assay buffer. The filters containing the bound ligand were mixed with 150 µL of Optiphase Supermix scintillation cocktail (PerkinElmer) and counted immediately. All data points were obtained in triplicate. The dissociation constant (Kd) and the maximal number of binding site (Bmax) values were determined by fitting the data to the following equation: bound = (Bmax × [radioligand])/([radioligand] + [unlabeled compound] + Kd) + bottom. This was achieving via non-linear regression using GraphPad Prism software (version 4.0), where (bottom) is the non-specific binding and the [radioligand], [unlabeled compound], and Kd are expressed in nM. The synthesis of the tested compounds is described in the Supporting Information. […]
(§3) c) Direct radioactive competitive binding assay of radiotracers [11C]7f, [ 18 F]7j, [ 11C]8i and [ 125 I]8i and [ 3H]8i Affinity determination (Kd) using direct radioactive competitive binding assay with recombinant α-synuclein fibrils, Banner PD tissues, AD brain tissue homogenates. Brain tissue from PD and AD cases was obtained from the Banner Sun Health Research Institute Brain and Body Donation Program of Sun City, Arizona. […]
(§4) These direct binding assays used a fixed concentration of either α-synuclein fibrils or AD tissue and the radioligand ([11C]7f, [ 18F]7j, [ 11C]8i and [ 125 I]8i, [ 3H]8i ) and varying concentration ranges of corresponding homologous non-radiolabeled standard reference compound. In brief, the standard homologous reference compound was diluted in 30 mM Tris-HCl pH 7.4, 0.1% BSA. Reactions were incubated at 37 °C for 1 h before quantifying bound radioligand.
(§5) Bound and free radioligands were separated by vacuum filtration through 1.0 µm glass fiber filters in 96-well filter plates (Millipore), followed by three 200 µL washes with ice-cold assay buffer. Filtrates containing the bound ligand were mixed with 150 µL of Optiphase Supermix scintillation cocktail (PerkinElmer) and counted immediately. All data points were performed in triplicate. The dissociation constant (Kd) and the maximal number of binding sites (Bmax) values were determined by fitting the data to the equation. […]

[4] = target: AD brain tissue homogenates; assay: homologous competitive binding assay of radiotracers, AD tissue; design: species or system human; settings: average, NB = no binding
Description: as §1
These direct binding assays used a fixed concentration of either recombinant α-synuclein fibrils, LBD-amplified fibrils, PD, AD tissue, or a radioligand ([^11C]7f, [^18F]7j, [^11C]8i and [^125I]8i, [^3H]8i) and varying concentration ranges of the corresponding homologous non-radiolabeled standard reference compound. […] The filters containing the bound ligand were mixed with 150 µL of Optiphase Supermix scintillation cocktail (PerkinElmer) and counted immediately. […] The dissociation constant (Kd) and the maximal number of binding site (Bmax) values were determined by fitting the data to the following equation: bound = (Bmax × [radioligand])/([radioligand] + [unlabeled compound] + Kd) + bottom. […]
Bound and free radioligands were separated by vacuum filtration through 1.0 µm glass fiber filters in 96-well filter plates (Millipore), followed by three 200 µL washes with ice-cold assay buffer. […] The dissociation constant (Kd) and the maximal number of binding sites (Bmax) values were determined by fitting the data to the equation. […]

[5] = target: T1, recombinant α-synuclein fibrils; assay: radioactive competitive binding assay with [^3H]BF2846 (Tables 1 and 2: or [^18F]7j with LBD-amplified fibrils); settings: running text b71; fibril type and assay not stated
[6] = target: T3, PD brain tissues (Homo sapiens, UniProt P37840); assay: homologous competitive binding assay of radiotracers, PD tissue; settings: for binding to PD tissues versus AD and control brain tissues: in words
T3 construct: The brain tissue from PD and AD cases was obtained from the Banner Sun Health Research Institute Brain and Body Donation Program; tissue Banner Sun Health Research Institute Brain and Body Donation Program; host or cells: human PD post mortem brain tissue
Description: as §1, §2, §3, §4
as §5, with “equation. Bound = (Bmax*[Radioligand])/([Radioligand] + [Unlabeled compound] + Kd) + Bottom by nonlinear regression using GraphPad Prism software (version 4.0), where (Bottom) is nonspecific binding and [Radioligand], [Unlabeled compound], and Kd is expressed in nM” for “equation.”
Production of [ 11C]CH3I followed the reported method. Briefly, [ 11C]CH3I was produced on-site from [ 11C]CO2 using a GE PETtrace MeI Microlab. Up to 1.4 Ci of [ 11C]carbon dioxide was produced from the JSW BC-16/8 cyclotron […]

[7] = Figure 5, single representative curve, read-out: Kd, LBD amplified fibrils, representative assay
[8] = homologous competitive binding, average values for 7f (n = 3) and 7j (n = 15), read-out: Kd, LBD-amplified fibrils
[9] = homologous competitive binding, average (n = 4 for 7j), NB = no binding, read-out: Kd, PD tissue

blood–brain barrier penetration [2] | brain washout kinetics [2] | time of peak brain uptake post-injection ([2]; n = 1 per tracer) | Kd [3, 7] | Kd [3, 8] | Kd [6, 9] | Structure (SMILES) | binding to PD tissues versus AD and control brain tissues [6] | also measured
 |  |  |  |  |  | C#CCCC1(CCOc2ccc3nc(Nc4ccc(OC)nc4)ccc3c2)N=N1 [TZ-CLX, 6-(2-(3-(But-3-yn-1-yl)-3H-diazirin-3-yl)ethoxy)-N-(6-methoxypyridin-3-yl)quinolin-2-amine] |  | binding site on α-synuclein fibrils by photo-crosslinking [1]: significant selectivity for the C-terminal binding sites of α-synuclein fibrils
penetrated the BBB well | rapid washout from all brain regions | 3 min | 11 nM | 15.5 ± 4.8 nM |  | COc1ccc(Nc2ccc3cc(O[11CH3])ccc3n2)cn1 [[^11C]7f] |  | Kd [4]: 62.7 ± 68.8 nM
penetrated the BBB very well | slow |  |  |  |  | [11CH3]Oc1ccc(Nc2ccc3cc(OC/C=C/I)ccc3n2)cn1 [[^11C]8i] | potent selectivity for PD brain tissues over AD and control tissues | initial brain uptake, standardized uptake value (SUV) ([2]; 3 min post-injection, n = 1 per tracer): about 3 g/mL; brain uptake ratio from 3 min to 120 min ([2]; washout kinetics, n = 1): about 1.5; Kd [5]: 5 nM
penetrated the BBB well | rapid washout from all brain regions | 3 min | 26 nM | 21 ± 8.7 nM | 19.5 ± 15.5 nM | COc1ccc(Nc2ccc3cc(OCC[18F])ccc3n2)cn1 [[^18F]7j] |  | Kd, AD tissue [4]: no binding; Kd ([6]; Figure 5, single representative curve, read-out: Kd, PD tissue, representative assay): 3.6 nM
 |  |  |  | 5 nM and 4.8 nM | 5 nM | COc1ccc(Nc2ccc3cc(OC/C=C/[125I])ccc3n2)cn1 [[^125I]8i] | selective for PD tissues versus AD or control tissues; also recorded: very potent for PD tissues but not for control and AD brain tissues | Bmax, high affinity binding site, PD tissues ([6]; two-site binding): 50 nM; Bmax, low affinity binding site, PD tissues ([6]; two-site binding): 12 µM; Kd ([6]; two-site binding, read-out: Kd, high affinity binding site, PD tissues): 0.61 nM
